Tests used:
[1] = system: Group I self-splicing intron (ribozyme) from the 26S rRNA gene of Pneumocystis carinii, isolate Pc1; assay: In vitro self-splicing of the Group I intron, assayed by splicing of [32P]RNA precursor or by [alpha-32P]GTP incorporation; format: biochemical; details: for mode of inhibition (kinetic analysis): relative to GTP/guanosine; for inhibition of splicing of the 26S rRNA intron: result in words, 5 mM MgCl2, 100 μM GTP unless otherwise indicated, 37° C., 20 minutes; for inhibition of splicing at 500 μM: inhibitor at 500 μM; for replacement of GTP in the splicing reaction: equal concentrations to GTP
Protocol: Polymerase chain reaction (PCR) amplification (56) of the intron from the 26S rRNA gene and a portion of the 5' and 3' flanking exons (660 nucleotides of amplified rRNA gene), between nucleotides 1963 and 2267 of 26S rRNA of isolate Pc1 was performed with primers 4208 (5'-[…]-3') (SEQ ID NO:33), whose first 17 nucleotides are a bacteriophage SP6 promoter (57), and 4358 (5'-GACGAGGCATTTGGCTACC-3') (SEQ ID NO:35) in a DNA Thermal Cycler (Perkin-Elmer-Cetus), under conditions recommended by the manufacturer. For some experiments a longer PCR product (1296 nucleotides of amplified rRNA gene) was generated by similar methods, using primers 4208 and 3734 (5'-[…]-3') to amplify the region between nucleotides 1963 and 2903 of 26S rRNA. Transcription of PCR product DNA (1 μg) by SP6 RNA polymerase to produce E1-I-E2 RNA precursor (1296 or 660 nucleotides in length) was carried out using the Riboprobe System II (Promega) under the recommended conditions.
Radioactive RNA precursor (1296 nucleotides, 1 nM) was incubated at 37° C. for 30 minutes in the presence of 50 mM Tris-HCl, pH 7.5, 0.4 mM spermidine, 4 units of RNasin, 100 μM guanosine triphosphate (GTP) and the indicated concentrations of MgCl2 in a volume of 10 μl. Reactions were terminated by addition of 10 μl of 8M urea containing 5 mM Na-EDTA, pH 8.0, and 0.025% each of bromphenol blue and xylene cyanol, followed by heating at 65° C. for 3 minutes and PAGE, with visualization by autoradiography. Lane M contains RNA standards (molecular weights 1.77, 1.52, 1.28, 0.78, 0.53, 0.40, 0.28, and 0.16 kd, BRL), 5'-labeled with ^32 p using bacteriophage T4 polynucleotide kinase (Pharmacia). Lane 1, purified RNA precursor; lane 2, GTP omitted, 5 mM MgCl2; lane 3, no MgCl2, 1 mM EDTA; lanes 4-11, reactions run in the presence of 0, 1, 5, 25, 50, 100, 200 or 500 mM MgCl2, respectively. O indicates origin; P, RNA precursor; I, linear intron; E1-E2, spliced RNA product; C, presumed circularized intron. Bands corresponding to the 5' exon (E1) and G-intron-3' exon (I-E2) are not visible on this exposure.
FIGS. 13A through 13D show the inhibition of intron splicing by antibiotics. All experiments were done with 660 nucleotide RNA precursor. In vitro splicing of [^32 P]RNA precursor was performed in the presence of 5 mM MgCl2 and 100 μM GTP (unless otherwise indicated) at 37° C. for 20 minutes as in FIG. 12. Splicing of unpurified transcripts extracted from SP6 RNA polymerase reactions was performed with 12.5 nM of [α-^32 P]GTP replacing non-radioactive GTP. Bands are identified as in FIG. 12. FIG. 13A: Inhibition by gentamicin and tetracycline. Purified [^32 P]RNA precursor splicing was performed as indicated. Lane 1, control without GTP; lane 2, complete reaction without antibiotics; lanes 3-7, gentamicin present at 50, 100, 200, 250 and 500 μM; lanes 8-12, tetracycline present at 10, 50, 100, 200, and 400 μM. FIG. 13B: Inhibition of intron splicing by gentamicin and tetracycline. Splicing of non-radioactive RNA was assayed in the presence of [^32 P]GTP with no antibiotic (lanes 1 and 7), with 50, 100, 200, 300, and 500 μM gentamicin (lanes 2-6), and with 50, 100, 200, and 400 μM tetracycline (lanes 8-11). FIG. 13C: Splicing inhibition by ethidium bromide. Reactions of [^32 P]RNA precursor were run in the presence of 10 μM GTP (except lane 1 which contained neither GTP nor ethidium bromide); lanes 2-7, reactions run in the presence of ethidium bromide at 0, 0.5, 1, 5, 10, and 25 μM, respectively. […] FIG. 13D: Inhibition of splicing by ethidium bromide, as measured by incorporation of [α-^32 P]GTP. Lanes 1-5, reactions run in the presence of 0, 0.5, 1, 5 and 25 μM ethidium bromide, respectively.
FIGS. 14A and 14B show the inhibition of intron splicing by pentamidine. Reactions were performed as in FIG. 13, with 660 nucleotide RNA precursor. FIG. 14A: Assays of splicing of [^32 P]RNA precursor. […]

[2] = system: Group I self-splicing intron from the 16S rRNA gene of P. carinii; assay: In vitro self-splicing of the intron from the 16S rRNA gene; format: biochemical, Pneumocystis carinii; details: result in words
From the text: Inhibition by aminoglycosides of splicing of other group I introns has previously been described (55,61). […] Some radioactivity remaining at the gel origin and a decrease in precursor entering the gel in the presence of high levels of gentamicin (FIG. 13A) may reflect RNA binding by the antibiotic. […] This mechanism would be consistent with the lack of inhibition of splicing of group II introns by these agents (55,61).
Alternatively, the paired aromatic rings and/or positively charged moieties of pentamidine might act to distort the intron's secondary structure, which is critical to its catalytic function (63). […] If the ability of pentamidine analogues (49) to inhibit splicing correlates with in vivo activity against experimental PCP then this assay would be useful for this purpose.

Saccharomyces cerevisiae = details: grown in glycerol versus fermentable sugars; cited from earlier work

Row | Compound | inhibition of splicing of the 26S rRNA intron [1] | inhibition of splicing at 500 μM [1] | other results
1 | N=C(N)c1ccc(OCCCCCOc2ccc(C(=N)N)cc2)cc1 [Pentamidine] | inhibited splicing |  | effect on the first step of the splicing reaction ([1]; kinetic analysis): acting on the first step; mode of inhibition (kinetic analysis) [1]: non-competitive; inhibition of splicing of the 16S rRNA intron [2]: inhibited splicing; sensitivity of growth to pentamidine (Saccharomyces cerevisiae): more sensitive to pentamidine when grown in glycerol than in various fermentable sugars
2 | N=C(N)NCCC[C@H](N)C(=O)O [arginine] | inhibited competitively by high concentrations |  | mode of inhibition (kinetic analysis) [1]: competitively
3 | NC(=O)NCCC[C@H](N)C(=O)O [citrulline] | no detectable inhibition |  | 
4 | CCC[C@@H]1C[C@@H](C(=O)N[C@@H]([C@H]2O[C@H](SC)[C@H](O)[C@@H](O)[C@H]2O)[C@H](C)Cl)N(C)C1 [clindamycin] |  | failed to inhibit splicing by either assay | 
5 | tri-arginine |  |  | potency relative to L-arginine / arginine ([1]; inhibition of splicing): at least 1,000 times
6 | CC1(C)S[C@@H]2[C@H](NC(=O)[C@H](N)c3ccccc3)C(=O)N2[C@H]1C(=O)O [Ampicillin] |  | failed to inhibit | 
7 | Nc1nc2c(ncn2[C@@H]2O[C@H](COP(=O)(O)OP(=O)(O)OP(=O)(O)O)[C@@H](O)[C@H]2O)c(=O)[nH]1 [GTP, guanosine triphosphate] |  |  | Km ([1]; in vitro splicing, 5 mM MgCl2, 37° C.): 3 µM
8 | COc1ccc(C[C@H](N)C(=O)N[C@H]2[C@@H](O)[C@H](n3cnc4c(N(C)C)ncnc43)O[C@@H]2CO)cc1 [puromycin] |  | failed to inhibit splicing by either assay | 
9 | gentamicin | inhibited splicing |  | sensitivity of splicing assayed by incorporation of [α-32P]GTP into I and I-E2 ([1]; compared with splicing of radioactive RNA precursor, 12.5 nM [α-32P]GTP): less sensitive
10 | Nc1nc2c(ncn2[C@@H]2O[C@H](COP(=O)(O)O)[C@@H](O)[C@H]2O)c(=O)[nH]1 [GMP, guanosine monophosphate] |  |  | replacement of GTP in the splicing reaction [1]: replaceable by equal concentrations
11 | [H]/N=C(/N)N[C@H]1[C@H](O)[C@@H](O)[C@H](O[C@@H]2O[C@@H](C)[C@](O)(C=O)[C@H]2O[C@@H]2O[C@@H](CO)[C@H](O)[C@@H](O)[C@@H]2NC)[C@@H](N/C(N)=N\[H])[C@@H]1O [streptomycin] |  |  | mode of inhibition (kinetic analysis) [1]: competition with guanosine
12 | Nc1nc2c(ncn2[C@@H]2O[C@H](COP(=O)(O)OP(=O)(O)O)[C@@H](O)[C@H]2O)c(=O)[nH]1 [GDP, guanosine diphosphate] |  |  | replacement of GTP in the splicing reaction [1]: replaceable by equal concentrations
13 | CN[C@@H]1[C@@H](O)[C@@H](O[C@@H]2[C@@H](O)[C@H](O[C@H]3O[C@H]([C@@H](C)O)[C@@H](O)[C@H](O)[C@H]3N)[C@@H](N)C[C@H]2N)OC[C@]1(C)O [G418] |  | failed to inhibit splicing | 
14 | C[C@@H]1C[C@@H]([C@H](O)CC2CC(=O)NC(=O)C2)C(=O)[C@@H](C)C1 [cycloheximide] |  | failed to inhibit splicing by either assay | 
15 | O=C(O)C1=CC(=C(c2ccc(O)c(C(=O)O)c2)c2ccc(O)c(C(=O)O)c2)C=CC1=O [aurintricarboxylic acid] |  | failed to inhibit splicing by either assay | 
16 | CC[n+]1c(-c2ccccc2)c2cc(N)ccc2c2ccc(N)cc21 [ethidium bromide] | completely inhibiting splicing by either assay |  | 
17 | O=C(N[C@H](CO)[C@H](O)c1ccc([N+](=O)[O-])cc1)C(Cl)Cl [chloramphenicol] |  | failed to inhibit splicing by either assay | 
18 | CN(C)C1C(=O)C(C(N)=O)=C(O)C2(O)C(=O)C3=C(O)c4c(O)cccc4C(C)(O)C3CC12 (centres unmarked) [tetracycline] | inhibits RNA splicing |  | mode of inhibition (kinetic analysis) [1]: non-competitive with GTP
19 | N=C(N)NCCC[C@H](N)C(=O)O [L-arginine] | greater for L-arginine than D-arginine |  | effect on the first step of the splicing reaction ([1]; kinetic analysis): inhibiting the first step; effect on the second step of the splicing reaction ([1]; kinetic analysis): activate the second step
20 | N=C(N)NCCC[C@@H](N)C(=O)O [D-arginine] | greater for L-arginine than D-arginine |  | 

Reference: patent US5849484A, “In vitro assay for inhibitors of the intron self-splicing reaction in Pneumocystis carinii” (University of Medicine & Dentistry of NJ, priority 1995, dated 1998)
